Data on one compound can be found in US20250144049A1, “METHODS, COMPOSITIONS, AND USES RELATED TO THE TREATMENT AND PREVENTION OF LEIGH SYNDROME” (Stealth BioTherapeutics Inc., priority 2023, published 2025).

The nature of this data set: Pharmacokinetics of Compound 3 after repeated (5 days) subcutaneous dosing. It is filed as in vivo. As to the method: The volume of each dose delivered (mL/kg) was based on each individual animal's body weight. • This was a multiple dose terminal study dosed once per day over 5 days. Rats were taken down following their 5th and final dose. • Doses were administered in accordance with test facility standard operating procedures.
• Terminal blood samples were collected via cardiac puncture following inhalation anesthesia in accordance with test facility standard operating procedures. • Blood samples were collected into tubes with appropriate anticoagulant. Tubes were stored on wet ice until processed to plasma by centrifugation (3500 rpm at 5° C. for 10 minutes) within 20 minutes of collection. Sample aliquots of 100 μL were transferred into individual uniquely labeled matrix tubes and stored at nominal −80° C. until transferred to analytical chemistry for analysis. • Immediately following each terminal blood collection for all groups, animals were sacrificed and perfused with cold PBS. The following tissues were collected: heart and brain, in accordance with Table 4. • Plasma and tissue samples were processed for analysis by LC/MS/MS to determine the amounts/concentrations reported in the Figures.

On to `CC1=C(C)C(=O)C(CC[C@@](C)(O)COCCC[Si](C)(C)C)=C(C)C1=O` [Compound 3], for which the “uptake to plasma and clearance rate, mouse versus rat” value (20 mg/kg SC mouse vs 10 mg/kg SC rat (60 mg/m^2), 30 minutes to 24 hours, FIG. 17) is “roughly equivalent”. For the same compound, where the note is “rat, 10 mg/kg SC, 5 daily doses”, the tolerability result is on record as “well tolerated”.
